Results as given in publication PMC11189555, “Aryl amino acetamides prevent Plasmodium falciparum ring development via targeting the lipid-transfer protein PfSTART1” (Nature Communications, 2024).
pEC50: −log10 of the molar value. Where two headings read alike, the source gives them in different places.

System: PopD F7 M-833 resistant clone (PfSTART1 N309K)
Assay: Growth inhibition assay (72 h, LDH activity)
Assay type: cell-based, Plasmodium falciparum
Protocol: The drug was then removed, and parasites were allowed to recover. Another cycle of drug treatment (3 μM M-833) was then resumed. The resistant lines were cloned out by limiting dilution (diluting the culture into a 96-well plate to achieve an average of ~0.3 parasites per well), prior to growth inhibition assays and genomic DNA (gDNA) extraction (DNeasy Blood and Tissue kit (Qiagen)[18].
Parasite growth assays with inhibitory compounds were performed as per[11] and are fully described in the Supplementary Information.
Molecular biology and transfection of P. falciparum: CRISPR method.
The full 5’ homology region of pfstart1 (either WT, N309K or N330K) was amplified from pPfSTART1-HA-2A-Neo-glmS with the same 5’ BglII primer and a new 3’ primer that replaced with PstI with SpeI and introduced a stop codon. The PCR product was then digested with BglII and SpeI and inserted into similarly digested p1.2 parasite vector2. The p1.2 vector had previously been inserted with a homology region amplified from the 3’ end of the pfstart1 gene (3’HB) to form a second homology block for double recombination. The primers used to amplify 3’HB are listed primers listed in […]
60 μg of p1.2-PfSTART1(WT/N309K/N330K) plasmid was linearised with KasI, precipitated in 3 M sodium acetate and ethanol (70% final concentration) overnight at -20°C. The DNA pellet was washed in cold 70% ethanol and resuspended in cytomix 3.
50 μ M of crRNA ( Table S 2) and 50 μM of tracRNA (Integrated DNA Technologies) were allowed to form a duplex (5 min at 95°C), and Cas9 enzyme (Integrated DNA Technologies) was added, and incubated for 20 min at room temperature 4. This crRNA -tracRNA -Cas9 mix was added to each DNA preparation and transfected to 3D7 ring parasites using the Bio -Rad Gene Pulser at 310 V and 950 μF.
Parasites containing the transfected DNA were selected using 2.5 nM WR99210 (Jacobus). Parasites lines were cloned using limiting dilution. Correct integration was tested by PCR (using primer START_5’UTR.F and START_Int.R1 , Table S 2), and sequencing was done using the primers START_3F and START_Int.R2 (Table S 2).
Growth inhibition assays. Synchronised ring-stage parasites (0.3-0.6% parasitemia, 2% haematocrit) were grown for 72 h in a serial-dilution of the compound under […]
and compound 4. Note that M-833 was first purchased from MolPort (MolPort -002-267-916) then made in-house at WEHI: the differences observed in EC50s across experiments are attributed to the different batches of M -833. For some experiments, 0, 0.25 or 2.5 mM of glucosamine (GlcN) was also added. Experiments were set up in technical duplicates or triplicates. Following a freeze -thaw cycle, lactate dehydrogenase (LDH) activity was assessed as an indicator of parasite growt h 5. 30 μL of parasite culture was incubated for 30 min in the dark with 75 μL Malstat mixture (0.1 M Tris pH 9.0, 20 g/L lactic acid, pH 7.5, 0.2% Triton-X100, 0.5 g/L acetylpyridine adenine dinucleotide (APAD, Sigma), 200 μg/mL nitroblue tetrazolium (NBT; Sigma), 1 μg/mL phenozine ethosulfate (PES; Sigma)). Absorbance was then measured at 650 nm, transformed using the formula below, plotted against the logarithm of the concentrations, and a non-linear regression (log(inhibitor) vs. response, variable slope) was calculated using GraphPad Prism to assess the half-inhibitory […]
Growth inhibition % = (1 − average(sample)− average(uRBC)) ∗ 100 […]
The DMSO samples were also used to assess growth of parasite in the presence of 0.25 and 2.5 mM GlcN (normalised by DMSO in 0 mM GlcN).
Egress, invasion & recovery assay. To measure egress, invasion and follow up recovery in the presence of different compounds, we adapted the method developed in6, using Hyp1-Nluc parasites7. These parasites episomally express the exported PEXEL protein Hyp1 (PF3D7_0113300) tagged with a NanoLuc luciferase (NLuc) and were selected with 2.5 nM WR99210 (Jacobus). Highly synchronised schizonts were […]

Cc1cc(Cl)c(S(=O)(=O)N2CCCC2)cc1OCC(=O)NC1CCCCC1 [M-833]
Normalised to DMSO (M-833 0.0390625 uM, Pop D-F7 replicate 1): 102.746
Normalised to DMSO (M-833 0.0390625 uM, Pop D-F7 replicate 3): 104.013
Normalised to DMSO (M-833 0.078125 uM, Pop D-F7 replicate 1): 103.501
Normalised to DMSO (M-833 0.078125 uM, Pop D-F7 replicate 3): 102.629
Normalised to DMSO (M-833 0.15625 uM, Pop D-F7 replicate 1): 104.635
Normalised to DMSO (M-833 0.15625 uM, Pop D-F7 replicate 3): 103.875
Normalised to DMSO (M-833 0.3125 uM, Pop D-F7 replicate 1): 106.297
Normalised to DMSO (M-833 0.3125 uM, Pop D-F7 replicate 3): 100.415
Normalised to DMSO (M-833 0.625 uM, Pop D-F7 replicate 1): 98.8413
Normalised to DMSO (M-833 0.625 uM, Pop D-F7 replicate 3): 99.3081
Normalised to DMSO (M-833 1.25 uM, Pop D-F7 replicate 1): 89.7985
Normalised to DMSO (M-833 1.25 uM, Pop D-F7 replicate 3): 89.8985
Normalised to DMSO (M-833 2.5 uM, Pop D-F7 replicate 1): 74.9622
Normalised to DMSO (M-833 2.5 uM, Pop D-F7 replicate 3): 59.8708
Normalised to DMSO (M-833 5 uM, Pop D-F7 replicate 1): 50.7053
Normalised to DMSO (M-833 5 uM, Pop D-F7 replicate 3): 43.6808
Normalised to DMSO (M-833 10 uM, Pop D-F7 replicate 1): 28.7406
Normalised to DMSO (M-833 10 uM, Pop D-F7 replicate 3): 39.9446
inhibition at 0.0390625 µM (Plasmodium falciparum, M-833 0.0390625 uM, Pop D-F7 replicate 1, read-out: % Inhibition): -2.75%
inhibition at 0.0390625 µM (Plasmodium falciparum, M-833 0.0390625 uM, Pop D-F7 replicate 3, read-out: % Inhibition): -4.01%
inhibition at 0.078125 µM (Plasmodium falciparum, M-833 0.078125 uM, Pop D-F7 replicate 1, read-out: % Inhibition): -3.5%
inhibition at 0.078125 µM (Plasmodium falciparum, M-833 0.078125 uM, Pop D-F7 replicate 3, read-out: % Inhibition): -2.63%
inhibition at 0.15625 µM (Plasmodium falciparum, M-833 0.15625 uM, Pop D-F7 replicate 1, read-out: % Inhibition): -4.63%
inhibition at 0.15625 µM (Plasmodium falciparum, M-833 0.15625 uM, Pop D-F7 replicate 3, read-out: % Inhibition): -3.87%
inhibition at 0.3125 µM (Plasmodium falciparum, M-833 0.3125 uM, Pop D-F7 replicate 1, read-out: % Inhibition): -6.3%
inhibition at 0.3125 µM (Plasmodium falciparum, M-833 0.3125 uM, Pop D-F7 replicate 3, read-out: % Inhibition): -0.415%
inhibition at 0.625 µM (Plasmodium falciparum, M-833 0.625 uM, Pop D-F7 replicate 1, read-out: % Inhibition): 1.16%
inhibition at 0.625 µM (Plasmodium falciparum, M-833 0.625 uM, Pop D-F7 replicate 3, read-out: % Inhibition): 0.692%
inhibition at 1.25 µM (Plasmodium falciparum, M-833 1.25 uM, Pop D-F7 replicate 1, read-out: % Inhibition): 10.2%
inhibition at 1.25 µM (Plasmodium falciparum, M-833 1.25 uM, Pop D-F7 replicate 3, read-out: % Inhibition): 10.1%
inhibition at 2.5 µM (Plasmodium falciparum, M-833 2.5 uM, Pop D-F7 replicate 1, read-out: % Inhibition): 25%
inhibition at 2.5 µM (Plasmodium falciparum, M-833 2.5 uM, Pop D-F7 replicate 3, read-out: % Inhibition): 40.1%
inhibition at 5 µM (Plasmodium falciparum, M-833 5 uM, Pop D-F7 replicate 1, read-out: % Inhibition): 49.3%
inhibition at 5 µM (Plasmodium falciparum, M-833 5 uM, Pop D-F7 replicate 3, read-out: % Inhibition): 56.3%
inhibition at 10 µM (Plasmodium falciparum, M-833 10 uM, Pop D-F7 replicate 1, read-out: % Inhibition): 71.3%
inhibition at 10 µM (Plasmodium falciparum, M-833 10 uM, Pop D-F7 replicate 3, read-out: % Inhibition): 60.1%
inhibition at 0.0390625 µM (Plasmodium falciparum, Pop D-F7 replicate 1, M-833 0.0390625 uM): -0.465%
inhibition at 0.078125 µM (Plasmodium falciparum, Pop D-F7 replicate 1, M-833 0.078125 uM): -0.401%
inhibition at 0.15625 µM (Plasmodium falciparum, Pop D-F7 replicate 1, M-833 0.15625 uM): 3.58%
inhibition at 0.3125 µM (Plasmodium falciparum, Pop D-F7 replicate 1, M-833 0.3125 uM): 2.21%
inhibition at 0.625 µM (Plasmodium falciparum, Pop D-F7 replicate 1, M-833 0.625 uM): 8.79%
inhibition at 1.25 µM (Plasmodium falciparum, Pop D-F7 replicate 1, M-833 1.25 uM): 10.1%
inhibition at 2.5 µM (Plasmodium falciparum, Pop D-F7 replicate 1, M-833 2.5 uM): 29%
inhibition at 5 µM (Plasmodium falciparum, Pop D-F7 replicate 1, M-833 5 uM): 45.3%
inhibition at 10 µM (Plasmodium falciparum, Pop D-F7 replicate 1, M-833 10 uM): 71.1%
pEC50 (Plasmodium falciparum, read-out: EC50 (95% confidence interval)): 5.53
Normalised to DMSO (Pop D-F7 replicate 1, M-833 0.0390625 uM): 100.465
Normalised to DMSO (Pop D-F7 replicate 1, M-833 0.078125 uM): 100.401
Normalised to DMSO (Pop D-F7 replicate 1, M-833 0.15625 uM): 96.4217
Normalised to DMSO (Pop D-F7 replicate 1, M-833 0.3125 uM): 97.7856
Normalised to DMSO (Pop D-F7 replicate 1, M-833 0.625 uM): 91.2067
Normalised to DMSO (Pop D-F7 replicate 1, M-833 1.25 uM): 89.8748
Normalised to DMSO (Pop D-F7 replicate 1, M-833 2.5 uM): 70.9884
Normalised to DMSO (Pop D-F7 replicate 1, M-833 5 uM): 54.6534
Normalised to DMSO (Pop D-F7 replicate 1, M-833 10 uM): 28.9313
